Reference: patent US8124617B2, “Imidazopyridine compounds” (Takeda San Diego, Inc., priority 2005, dated 2012)

How the values were obtained:
[1] = target: T1, GST-hLGK1 (human hepatic GK) (Homo sapiens, UniProt P35557); assay: Measurement of GK activation value (Mant-ATP/Mant-ADP capillary electrophoresis, reaction rate); assay type: biochemical; settings: concentration necessary for activation of 50% of the maximum activity value; 37° C., 60 min
T1 construct: made in house; host or cells: Escherichia coli BL21 (pGEX6P-2/hLGK1)
T1 sequence (P35557 1-464 isoform P35557-3): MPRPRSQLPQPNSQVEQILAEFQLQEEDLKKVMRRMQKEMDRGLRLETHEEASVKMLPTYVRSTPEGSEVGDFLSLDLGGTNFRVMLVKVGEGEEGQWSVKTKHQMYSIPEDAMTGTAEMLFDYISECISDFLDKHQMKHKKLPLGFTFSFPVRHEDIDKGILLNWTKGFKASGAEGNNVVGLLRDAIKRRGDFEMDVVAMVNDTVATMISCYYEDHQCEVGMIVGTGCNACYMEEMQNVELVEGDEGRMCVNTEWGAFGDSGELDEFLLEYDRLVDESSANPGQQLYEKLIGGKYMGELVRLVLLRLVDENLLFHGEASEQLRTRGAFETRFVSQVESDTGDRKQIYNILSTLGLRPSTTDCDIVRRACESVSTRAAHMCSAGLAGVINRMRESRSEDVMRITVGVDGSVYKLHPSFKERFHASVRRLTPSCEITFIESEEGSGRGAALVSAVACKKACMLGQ
Method: A plasmid DNA for expression of protein (GST-hLGK1) containing GST (Glutathione S-transferase) added to human hepatic GK amino terminal in Escherichia coli was prepared as follows.
BL21 strain (Stratagene) transformed with pGEX6P-2/hLGK1 obtained in Reference Example 1A was cultured with shaking in a 200 ml Erlenmeyer flask containing a 100 μg/ml ampicillin-containing LB medium (50 ml) at 37° C. for 14 hr. The culture medium (25 ml) was diluted with 100 μg/ml ampicillin-containing LB medium (225 ml), and further cultured with shaking in a 1 L Erlenmeyer flask at 37° C. for 1 hr. After cooling on ice the Erlenmeyer flask after culture, 100 mM Isopropyl-Thio-β-D-Galactopyranoside (IPTG) (125 μL) was added (final concentration 50 μM), and the mixture was cultured at 17° C. for 20 hr. After centrifugation of the culture medium, the obtained cells were ultrasonicated, and the object protein (GST-hLGK1) was purified from the supernatant using Glutathione Sepharose 4B (Amersham Biosciences).
A 50% solution (5 μL) of the test compound in dimethyl sulfoxide was added to each well of a 384 well black plate (Nalge Nunc). Then, 35 μL of a liquid obtained by diluting GST-hLGK1 obtained in Reference Example 2A with a measurement buffer (50 mM HEPES (pH 7.4), containing 200 mM KCl, 5 mM MgCl2, 2.5 mM DTT and 50 μM 2′-(or-3′)-O—(N-methylanthraniloyl)adenosine 5′-triphosphate (Mant-ATP) (Jena Bioscience)) was added to each well to 6 μg/mL.
Each well was stood at 37° C. for 10 min, and a 25 mM D-glucose solution (10 μL) was added to start the reaction.
Each well after the start of the reaction was stood at 37° C. for 60 min, and the reaction was quenched by adding 25 μL of a reaction quenching solution (200 mM HEPES (pH 7.4), containing 20 mM MgCl2, 200 mM EDTA, 0.03% Triton-X 100, 0.3% Coating 3 reagent (Caliper Life Sciences)).
Mant-ATP (substrate) and Mant-ADP (reaction resultant product) were separated from each well after quenching the reaction, with a microchip type capillary electrophoresis apparatus 250HTS (Caliper Life Sciences). The reaction rate [(peak height of reaction resultant product)/(peak height of reaction resultant product+peak height of substrate)×100(%)] was calculated from the ratio of the substrate peak height and the reaction resultant product peak height, which were obtained by fluorescence detection (excitation wavelength 355 nm, measurement wavelength 460 nm), and used as an index of the GK activity.
For the control, the reaction rate was calculated in the same manner as in the above except that “50% dimethyl sulfoxide solution” was used instead of the “50% solution of the test compound in dimethyl sulfoxide”.
A percentage obtained by dividing the reaction rate of the well added with the test compound (test compound addition group) by the reaction rate of the well added with a 50% dimethyl sulfoxide solution alone (control group) was taken as the GK activation value by the test compound, and the concentration of the test compound necessary for the activation of 50% of the maximum activity value is shown as an EC50 value.

A melting point of 136 to 137 °C and an EC50 [1] of 130 nM were found for `CC(C)Oc1cc(OCc2ccccc2)cc(-c2nc3cccnc3[nH]2)c1` [Example 2, 2-[3-(benzyloxy)-5-isopropoxyphenyl]-3H-imidazo[4,5-b]pyridine] in this work.
An EC50 [1] of 280 nM was found for `COc1ccc(-c2cnc3[nH]c(-c4cc(OCc5ccccc5)ccc4OC(C)C)nc3c2)c(OC)c1` [Example 45, 2-[5-(benzyloxy)-2-isopropoxyphenyl]-6-(2,4-dimethoxyphenyl)-3H-imidazo[4,5-b]pyridine] in this work.
An EC50 [1] of 1100 nM was found for `CC(C)Oc1cc(OCc2ccccc2)cc(-c2nc3cc(-c4cccnc4)cnc3[nH]2)c1` [Example 61, 2-[3-(benzyloxy)-5-isopropoxyphenyl]-6-pyridin-3-yl-3H-imidazo[4,5-b]pyridine] in this work.
A melting point of 92 to 94 °C was found for `CC(C)Oc1ccc(OCc2ccccc2)cc1-c1nc2cc(CNCc3ccccc3)cnc2[nH]1` [Example 79, N-benzyl-1-{2-[5-(benzyloxy)-2-isopropoxyphenyl]-3H-imidazo[4,5-b]pyridin-6-yl}methaneamine] in this work.
An EC50 [1] of 200 nM was found for `CC(C)Oc1cc(OCc2ccccc2)ccc1-c1nc2cc(-c3ccccc3F)cnc2[nH]1` [Example 72, 2-[4-(benzyloxy)-2-isopropoxyphenyl]-6-(2-fluorophenyl)-3H-imidazo[4,5-b]pyridine] in this work.
A melting point of 167 to 168 °C and an EC50 [1] of 730 nM were found for `CC(C)Oc1ccc(OCc2ccccc2)cc1-c1nc2cc(CO)cnc2[nH]1` [Example 76, {2-[5-(benzyloxy)-2-isopropoxyphenyl]-3H-imidazo[4,5-b]pyridin-6-yl}methanol] in this work.
An EC50 [1] of 290 nM was found for `CC(C)Oc1cc(OCc2ccccc2)ccc1-c1nc2cc(-c3ccc(F)cc3)cnc2[nH]1` [Example 50, 2-[4-(benzyloxy)-2-isopropoxyphenyl]-6-(4-fluorophenyl)-3H-imidazo[4,5-b]pyridine] in this work.
An EC50 [1] of 150 nM was found for `CC(C)Oc1cc(OCc2ccccc2)ccc1-c1nc2cc(-c3cccc(F)c3)cnc2[nH]1` [Example 73, 2-[4-(benzyloxy)-2-isopropoxyphenyl]-6-(3-fluorophenyl)-3H-imidazo[4,5-b]pyridine] in this work.
A melting point of 67 to 68 °C and an EC50 [1] of 820 nM were found for `CC(C)Oc1ccc(OCc2ccccc2)cc1-c1nc2cc(CNCCOc3ccccc3)cnc2[nH]1` [Example 80, N-({2-[5-(benzyloxy)-2-isopropoxyphenyl]-3H-imidazo[4,5-b]pyridin-6-yl}methyl)-2-phenoxyethaneamine] in this work.
An EC50 [1] of 250 nM was found for `COc1ccc(-c2cnc3[nH]c(-c4ccc(OCc5ccccc5)cc4OC(C)C)nc3c2)cc1` [Example 51, 2-[4-(benzyloxy)-2-isopropoxyphenyl]-6-(4-methoxyphenyl)-3H-imidazo[4,5-b]pyridine] in this work.
A melting point of 138 to 140 °C was found for `CCOC(=O)c1cnc2[nH]c(-c3cc(OCc4ccccc4)ccc3OC(C)C)nc2c1` [Example 74, ethyl 2-[5-(benzyloxy)-2-isopropoxyphenyl]-3H-imidazo[4,5-b]pyridine-6-carboxylate] in this work.
An EC50 [1] of 240 nM was found for `COc1ccccc1-c1cnc2[nH]c(-c3cc(OCc4ccccc4)ccc3OC(C)C)nc2c1` [Example 48, 2-[5-(benzyloxy)-2-isopropoxyphenyl]-6-(2-methoxyphenyl)-3H-imidazo[4,5-b]pyridine] in this work.
An EC50 [1] of 440 nM was found for `CC(C)Oc1ccc(OCc2ccccc2)cc1-c1nc2cc(-c3cccnc3)cnc2[nH]1` [Example 40, 2-[5-(benzyloxy)-2-isopropoxyphenyl]-6-pyridin-3-yl-3H-imidazo[4,5-b]pyridine] in this work.
A melting point of 214 to 215 °C was found for `CC(C)Oc1ccc(OCc2ccccc2)cc1-c1nc2ccc(C#N)nc2[nH]1` [Example 84, 2-[5-(benzyloxy)-2-isopropoxyphenyl]-3H-imidazo[4,5-b]pyridine-5-carbonitrile] in this work.
A melting point of 170 to 171 °C was found for `CC(C)Oc1ccc(OCc2ccccc2)cc1-c1nc2cc(C=O)cnc2[nH]1` [Example 77, 2-[5-(benzyloxy)-2-isopropoxyphenyl]-3H-imidazo[4,5-b]pyridine-6-carbaldehyde] in this work.
A melting point of 101 to 103 °C was found for `CC(C)CNCc1cnc2[nH]c(-c3cc(OCc4ccccc4)ccc3OC(C)C)nc2c1` [Example 78, N-({2-[5-(benzyloxy)-2-isopropoxyphenyl]-3H-imidazo[4,5-b]pyridin-6-yl}methyl)-2-methylpropan-1-amine] in this work.
A melting point of 110 to 112 °C and an EC50 [1] of 1600 nM were found for `CC(C)Oc1cc(OCCCc2cccnc2)cc(-c2nc3cccnc3[nH]2)c1` [Example 4, 2-[3-isopropoxy-5-(3-pyridin-3-ylpropoxy)phenyl]-3H-imidazo[4,5-b]pyridine] in this work.
A melting point of 182 to 184 °C was found for `CC(C)Oc1ccc(OCc2ccccc2)cc1-c1nc2cc(CNCC(=O)O)cnc2[nH]1` [Example 83, N-({2-[5-(benzyloxy)-2-isopropoxyphenyl]-3H-imidazo[4,5-b]pyridin-6-yl}methyl)glycine] in this work.
A melting point of 82 to 83 °C and an EC50 [1] of 150 nM were found for `CC(C)Oc1cc(OCCc2ccsc2)cc(-c2nc3cccnc3[nH]2)c1` [Example 3, 2-{3-isopropoxy-5-[2-(3-thienyl)ethoxy]phenyl}-3H-imidazo[4,5-b]pyridine] in this work.
A melting point of 69 to 71 °C and an EC50 [1] of 3700 nM were found for `COC(=O)CNCc1cnc2[nH]c(-c3cc(OCc4ccccc4)ccc3OC(C)C)nc2c1` [Example 82, methyl N-({2-[5-(benzyloxy)-2-isopropoxyphenyl]-3H-imidazo[4,5-b]pyridin-6-yl}methyl)glycinate] in this work.
An EC50 [1] of 2100 nM was found for `COc1ccc(OCc2ccccc2)cc1-c1nc2cccnc2[nH]1` [Example 5, 2-(5-(benzyloxy)-2-methoxyphenyl)-3H-imidazo[4,5-b]pyridine] in this work.
An EC50 [1] of 400 nM was found for `Cc1ccccc1-c1cnc2[nH]c(-c3cc(OCc4ccccc4)ccc3OC(C)C)nc2c1` [Example 47, 2-[5-(benzyloxy)-2-isopropoxyphenyl]-6-(2-methylphenyl)-3H-imidazo[4,5-b]pyridine] in this work.
A melting point of 167 to 168 °C was found for `CC(C)Oc1ccc(OCc2ccccc2)cc1-c1nc2ccc(CO)nc2[nH]1` [Example 87, {2-[5-(benzyloxy)-2-isopropoxyphenyl]-3H-imidazo[4,5-b]pyridin-5-yl}methanol] in this work.
A melting point of 80 to 81 °C was found for `COCCNCc1cnc2[nH]c(-c3cc(OCc4ccccc4)ccc3OC(C)C)nc2c1` [Example 81, N-({2-[5-(benzyloxy)-2-isopropoxyphenyl]-3H-imidazo[4,5-b]pyridin-6-yl}methyl)-2-methoxyethaneamine] in this work.
